Experimental data taken from ChEMBL document CHEMBL1201862, “PubChem BioAssay data set” (2004).
Activity calls are given as the source filed them.

Legend:
[1] = molecular target: Alkaline phosphatase, placental type (Homo sapiens, UniProt P05187); experiment: human placental alkaline phosphatase inhibition – biochemical, luminescence, confirmation (AID 1512); format: functional
[2] = molecular target: T1, Tyrosine-protein phosphatase non-receptor type 7 (Homo sapiens, UniProt P35236); experiment: SAR analysis of chemical inhibitors of HePTP using a Fluorescent assay - Set 2. [Related pubchem assays (depositor defined):AID1059, AID1077, AID1661, AID2085, AID521]; format: functional
T1 sequence (P35236 whole entry): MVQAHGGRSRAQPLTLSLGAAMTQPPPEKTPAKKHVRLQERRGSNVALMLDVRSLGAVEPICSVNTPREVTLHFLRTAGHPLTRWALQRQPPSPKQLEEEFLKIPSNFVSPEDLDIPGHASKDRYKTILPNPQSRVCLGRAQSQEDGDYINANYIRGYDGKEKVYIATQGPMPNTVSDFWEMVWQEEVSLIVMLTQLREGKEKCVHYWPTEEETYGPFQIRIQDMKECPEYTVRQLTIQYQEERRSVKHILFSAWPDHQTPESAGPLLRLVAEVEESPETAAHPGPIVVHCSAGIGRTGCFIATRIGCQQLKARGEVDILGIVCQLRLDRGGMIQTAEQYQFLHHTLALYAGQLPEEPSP

[3] = molecular target: Dual specificity protein phosphatase 3 (Homo sapiens, UniProt P51452); experiment: SAR VHR1 Fluorescent Assay for In Vitro dose response studies Set 2. [Related pubchem assays (depositor defined):AID1654, AID1661, AID1878]; format: functional
Sequence of Dual specificity protein phosphatase 3 (P51452 whole entry): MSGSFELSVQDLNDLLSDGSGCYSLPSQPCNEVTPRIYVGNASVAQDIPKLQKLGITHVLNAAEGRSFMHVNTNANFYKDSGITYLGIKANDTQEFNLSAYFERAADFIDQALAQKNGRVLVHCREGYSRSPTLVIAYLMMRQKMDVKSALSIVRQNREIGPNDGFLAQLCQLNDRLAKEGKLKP

[4] = tested on: Streptococcus sp. 'group A'; experiment: Streptococcus pyogenes SK(-)GAS viability under kanamycin – luminescence, BacTiterGlo, confirmation, counter-screen for streptokinase expression inhibitor project, dose response (AID 1900); format: functional, organism-based
[5] = molecular target: T2, Streptokinase A (Streptococcus pyogenes serotype M1, UniProt P10520); experiment: viability-normalized secreted streptokinase activity reduction – plasminogen activation absorbance, OD405, dose response (AID 1914); format: functional, Streptococcus pyogenes M1 GAS;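 also: secreted streptokinase activity via plasminogen activation per viability signal from cell pellet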
T2 sequence (P10520 whole entry): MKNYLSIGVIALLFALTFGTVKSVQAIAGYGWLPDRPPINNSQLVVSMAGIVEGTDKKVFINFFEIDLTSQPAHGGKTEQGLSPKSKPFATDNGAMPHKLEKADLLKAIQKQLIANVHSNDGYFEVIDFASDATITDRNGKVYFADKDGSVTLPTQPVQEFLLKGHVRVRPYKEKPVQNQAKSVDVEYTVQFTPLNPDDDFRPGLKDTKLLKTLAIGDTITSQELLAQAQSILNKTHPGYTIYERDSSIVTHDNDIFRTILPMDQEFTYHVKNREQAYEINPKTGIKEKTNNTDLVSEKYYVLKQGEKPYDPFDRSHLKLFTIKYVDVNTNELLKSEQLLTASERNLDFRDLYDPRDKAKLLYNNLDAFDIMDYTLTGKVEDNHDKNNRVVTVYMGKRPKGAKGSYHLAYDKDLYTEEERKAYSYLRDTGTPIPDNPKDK

[6] = viability of PTEN-deleted HCT116 cells – cell-based, HCT116 PTEN knockout, dose response (AID 1047); format: functional;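 also: HCT116 colon tumor cells with PTEN knocked out; cells exposed to compound for 60 hours before readout; potency for loss of cell viability measured by luminescence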
[7] = viability of HCT116 lacking mutant beta-catenin – cell-based, human colon tumor, dose response (AID 1045); format: functional;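 also: HCT116 colon tumor cells with beta catenin knocked out; cells exposed to compound for 60 hours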
[8] = tested on: Streptococcus; experiment: GAS UMAA2166 growth inhibition – luminescence, BacTiterGlo, counter-screen for streptokinase expression inhibitor project, dose response (AID 1915); format: functional, organism-based;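 also: potency for reduction of bacterial viability or growth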
[9] = molecular target: T3, Short transient receptor potential channel 4 (Mus musculus, UniProt Q9QUQ5); experiment: potentiation of DAMGO-evoked TRPC4 calcium signal – cell-based, HEK293 TRPC4/mu-opioid, Fluo-4 calcium, EC20 DAMGO, dose response (AID 434941); format: functional
T3 sequence (Q9QUQ5 whole entry): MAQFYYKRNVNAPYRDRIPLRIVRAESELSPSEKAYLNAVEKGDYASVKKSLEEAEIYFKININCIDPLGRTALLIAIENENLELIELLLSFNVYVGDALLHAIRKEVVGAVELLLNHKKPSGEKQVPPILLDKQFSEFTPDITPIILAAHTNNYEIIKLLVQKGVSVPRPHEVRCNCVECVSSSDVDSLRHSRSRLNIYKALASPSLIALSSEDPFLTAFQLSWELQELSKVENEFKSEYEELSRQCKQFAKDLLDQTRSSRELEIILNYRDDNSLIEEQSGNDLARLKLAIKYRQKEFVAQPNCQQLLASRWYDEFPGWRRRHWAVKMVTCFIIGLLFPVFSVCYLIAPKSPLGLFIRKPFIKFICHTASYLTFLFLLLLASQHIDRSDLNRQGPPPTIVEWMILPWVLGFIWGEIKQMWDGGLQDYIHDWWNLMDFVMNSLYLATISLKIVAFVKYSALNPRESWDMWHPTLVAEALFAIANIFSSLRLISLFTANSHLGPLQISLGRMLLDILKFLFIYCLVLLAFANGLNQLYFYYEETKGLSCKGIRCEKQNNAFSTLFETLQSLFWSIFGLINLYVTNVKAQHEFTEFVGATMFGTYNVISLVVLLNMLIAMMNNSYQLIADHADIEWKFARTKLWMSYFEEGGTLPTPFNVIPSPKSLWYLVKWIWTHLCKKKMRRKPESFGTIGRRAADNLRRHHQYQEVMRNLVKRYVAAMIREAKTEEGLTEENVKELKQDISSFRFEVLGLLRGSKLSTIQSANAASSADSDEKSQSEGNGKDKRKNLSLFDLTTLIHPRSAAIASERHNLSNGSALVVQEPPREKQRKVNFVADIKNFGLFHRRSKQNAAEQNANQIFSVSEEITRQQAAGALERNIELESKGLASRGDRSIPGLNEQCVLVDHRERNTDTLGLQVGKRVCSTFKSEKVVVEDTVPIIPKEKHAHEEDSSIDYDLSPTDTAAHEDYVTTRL

[10] = molecular target: T4, Corticotropin-releasing factor receptor 2/Corticotropin-releasing factor-binding protein (Homo sapiens, UniProt P24387+Q13324); experiment: activators of CRF receptor 2 with binding protein – uHTS hits, confirmation (AID 602473); format: functional; conditions: read-out: EC50_Mean
T4 sequence (Q13324 whole entry): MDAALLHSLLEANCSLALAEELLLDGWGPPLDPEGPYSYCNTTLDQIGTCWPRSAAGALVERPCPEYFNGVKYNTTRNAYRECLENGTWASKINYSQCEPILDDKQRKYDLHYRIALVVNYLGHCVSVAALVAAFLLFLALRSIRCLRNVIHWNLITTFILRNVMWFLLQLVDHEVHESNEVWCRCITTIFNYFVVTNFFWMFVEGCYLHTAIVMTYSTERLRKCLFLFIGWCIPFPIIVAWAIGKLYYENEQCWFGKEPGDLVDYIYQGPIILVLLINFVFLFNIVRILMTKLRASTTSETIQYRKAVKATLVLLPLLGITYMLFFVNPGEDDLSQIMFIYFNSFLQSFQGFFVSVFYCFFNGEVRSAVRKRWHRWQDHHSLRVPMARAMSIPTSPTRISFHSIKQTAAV
T4 sequence (P24387 whole entry): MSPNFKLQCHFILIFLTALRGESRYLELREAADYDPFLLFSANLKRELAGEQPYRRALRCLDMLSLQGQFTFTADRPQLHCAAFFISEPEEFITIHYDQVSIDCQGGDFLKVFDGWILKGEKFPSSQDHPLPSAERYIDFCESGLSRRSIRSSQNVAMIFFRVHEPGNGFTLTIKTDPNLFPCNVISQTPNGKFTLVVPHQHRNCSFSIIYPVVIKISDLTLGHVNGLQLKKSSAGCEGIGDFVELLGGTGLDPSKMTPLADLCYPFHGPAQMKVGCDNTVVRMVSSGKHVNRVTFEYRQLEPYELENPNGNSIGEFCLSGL

[11] = molecular target: Neurotensin receptor type 1 (Homo sapiens, UniProt P30989); format: functional;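 also: Image-based confirmatory dose-response assay measuring agonist activity at NTR1; NTR1-expressing U2OS osteosarcoma cells imaged for beta-arrestin GFP spot formation; agonist potency where compounds increase beta-arrestin recruitment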
Sequence of Neurotensin receptor type 1 (P30989 whole entry): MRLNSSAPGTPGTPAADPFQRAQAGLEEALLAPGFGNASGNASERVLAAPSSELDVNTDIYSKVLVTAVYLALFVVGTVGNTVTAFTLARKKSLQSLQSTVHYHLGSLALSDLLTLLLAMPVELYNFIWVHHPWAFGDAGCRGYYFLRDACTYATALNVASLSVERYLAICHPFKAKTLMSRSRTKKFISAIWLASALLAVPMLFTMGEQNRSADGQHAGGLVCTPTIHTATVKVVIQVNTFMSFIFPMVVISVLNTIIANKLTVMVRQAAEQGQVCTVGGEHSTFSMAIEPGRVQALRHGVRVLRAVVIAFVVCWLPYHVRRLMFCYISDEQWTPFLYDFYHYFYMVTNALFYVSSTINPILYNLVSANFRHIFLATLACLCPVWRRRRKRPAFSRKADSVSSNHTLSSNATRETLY

[12] = viability of uninfected HEp-2 cells – cell-based, HTS, cytotoxicity control for RSV inhibitor project, dose response (AID 2410); format: functional; conditions: human respiratory syncytial virus
[13] = Luminescence Cell-Based Dose Retest to Confirm Inhibitors of Cancer Stem Cells. [Related pubchem assays (depositor defined):AID2717, AID2721]; format: functional; conditions: Homo sapiens
[14] = molecular target: X-box-binding protein 1 (Homo sapiens, UniProt P17861); format: functional, Cricetulus griseus;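 also: confirmatory dose-response counter-screen serving a CHOP assay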
Sequence of X-box-binding protein 1 (P17861 whole entry): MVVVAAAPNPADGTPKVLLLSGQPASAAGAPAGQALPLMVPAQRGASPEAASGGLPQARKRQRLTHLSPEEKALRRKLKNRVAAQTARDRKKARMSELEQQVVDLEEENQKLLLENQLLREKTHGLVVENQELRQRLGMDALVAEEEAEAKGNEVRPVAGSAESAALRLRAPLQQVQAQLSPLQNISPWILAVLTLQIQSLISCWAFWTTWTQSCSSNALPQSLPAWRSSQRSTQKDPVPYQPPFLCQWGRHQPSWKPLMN

[15] = molecular target: Potassium voltage-gated channel subfamily KQT member 2 (Rattus norvegicus, UniProt O88943); experiment: potentiation of rat KCNQ2 current – cell-based, retigabine-insensitive compounds, dose response (AID 2654); format: functional
Sequence of Potassium voltage-gated channel subfamily KQT member 2 (O88943 whole entry): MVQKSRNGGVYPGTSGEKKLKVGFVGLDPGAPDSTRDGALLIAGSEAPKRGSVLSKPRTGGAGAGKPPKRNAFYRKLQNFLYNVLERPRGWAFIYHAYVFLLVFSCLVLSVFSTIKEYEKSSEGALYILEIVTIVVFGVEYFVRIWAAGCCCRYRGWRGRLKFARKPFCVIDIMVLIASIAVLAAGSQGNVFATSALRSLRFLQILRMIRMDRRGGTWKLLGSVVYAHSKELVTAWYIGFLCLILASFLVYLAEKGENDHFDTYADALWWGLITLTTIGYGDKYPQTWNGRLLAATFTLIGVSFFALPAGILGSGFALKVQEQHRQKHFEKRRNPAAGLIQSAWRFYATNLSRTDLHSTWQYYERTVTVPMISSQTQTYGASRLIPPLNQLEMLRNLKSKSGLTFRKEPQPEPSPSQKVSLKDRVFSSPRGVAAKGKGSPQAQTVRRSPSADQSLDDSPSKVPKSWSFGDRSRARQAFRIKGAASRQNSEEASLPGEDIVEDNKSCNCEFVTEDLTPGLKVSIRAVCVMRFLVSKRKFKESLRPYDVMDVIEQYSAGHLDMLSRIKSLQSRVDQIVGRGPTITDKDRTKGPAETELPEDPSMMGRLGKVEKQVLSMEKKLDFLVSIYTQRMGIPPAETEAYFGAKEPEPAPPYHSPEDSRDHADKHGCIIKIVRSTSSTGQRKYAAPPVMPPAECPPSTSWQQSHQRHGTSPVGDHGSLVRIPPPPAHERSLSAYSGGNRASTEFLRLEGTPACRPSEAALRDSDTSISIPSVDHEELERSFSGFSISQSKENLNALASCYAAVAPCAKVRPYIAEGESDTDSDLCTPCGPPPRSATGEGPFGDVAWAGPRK

[16] = molecular target: T5, Intestinal-type alkaline phosphatase (Homo sapiens, UniProt P09923); experiment: Dose Response confirmation of uHTS hits from a small molecule inhibitors of human intestinal alkaline phosphatase via a luminescent assay. [Related pubchem assays (depositor defined):AID2544, AID2574]; format: functional
T5 sequence (P09923 whole entry): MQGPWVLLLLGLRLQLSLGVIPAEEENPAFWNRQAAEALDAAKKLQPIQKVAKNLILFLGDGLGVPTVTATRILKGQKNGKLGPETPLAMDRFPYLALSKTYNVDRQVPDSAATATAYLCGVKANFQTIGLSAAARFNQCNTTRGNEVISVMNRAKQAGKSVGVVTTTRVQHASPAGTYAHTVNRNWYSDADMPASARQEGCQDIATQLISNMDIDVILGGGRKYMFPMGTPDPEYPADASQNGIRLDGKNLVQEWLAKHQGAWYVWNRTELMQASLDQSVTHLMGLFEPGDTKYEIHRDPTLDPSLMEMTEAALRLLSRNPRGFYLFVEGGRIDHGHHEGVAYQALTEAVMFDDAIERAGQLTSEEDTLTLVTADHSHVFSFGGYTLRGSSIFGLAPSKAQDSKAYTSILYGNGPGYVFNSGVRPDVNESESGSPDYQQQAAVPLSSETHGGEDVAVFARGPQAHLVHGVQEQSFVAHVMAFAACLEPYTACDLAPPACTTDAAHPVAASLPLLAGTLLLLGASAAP

[17] = molecular target: T5, Intestinal-type alkaline phosphatase; experiment: human intestinal alkaline phosphatase activators, dose response, biochemical, luminescence, uHTS hits (AID 463120); format: functional
[18] = molecular target: Wee1-like protein kinase (Homo sapiens, UniProt P30291); experiment: HeLa cell cycle G2/M accumulation – FACS, mechanism study for Wee1 degradation inhibitor project, late-stage follow-up, panel member Wee1 Degradation (AID 2088)
Sequence of Wee1-like protein kinase (P30291 whole entry): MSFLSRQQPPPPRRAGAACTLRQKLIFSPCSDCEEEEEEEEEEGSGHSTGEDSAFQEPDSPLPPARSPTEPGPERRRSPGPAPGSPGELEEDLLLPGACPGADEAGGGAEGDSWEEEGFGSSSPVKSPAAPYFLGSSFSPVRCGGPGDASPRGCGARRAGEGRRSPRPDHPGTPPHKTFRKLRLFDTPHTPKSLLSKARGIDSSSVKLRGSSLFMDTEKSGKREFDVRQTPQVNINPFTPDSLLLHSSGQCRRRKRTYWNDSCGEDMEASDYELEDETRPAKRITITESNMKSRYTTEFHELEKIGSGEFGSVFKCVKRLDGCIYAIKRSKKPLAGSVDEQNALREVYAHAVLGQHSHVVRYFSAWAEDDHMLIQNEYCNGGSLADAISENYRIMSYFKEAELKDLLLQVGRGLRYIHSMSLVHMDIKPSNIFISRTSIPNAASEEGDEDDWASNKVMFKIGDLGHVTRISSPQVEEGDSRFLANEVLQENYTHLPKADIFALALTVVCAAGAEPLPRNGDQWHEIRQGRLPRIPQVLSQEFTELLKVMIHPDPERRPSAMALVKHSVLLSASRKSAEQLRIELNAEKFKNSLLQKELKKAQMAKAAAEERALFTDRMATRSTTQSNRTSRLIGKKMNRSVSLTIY

[19] = molecular target: G2/mitotic-specific cyclin-B1 (Homo sapiens, UniProt P14635); experiment: HeLa cell cycle G2/M accumulation – FACS, mechanism study for Wee1 degradation inhibitor project, late-stage follow-up, panel member Cyclin B Degradation (AID 2088)
Sequence of G2/mitotic-specific cyclin-B1 (P14635 whole entry): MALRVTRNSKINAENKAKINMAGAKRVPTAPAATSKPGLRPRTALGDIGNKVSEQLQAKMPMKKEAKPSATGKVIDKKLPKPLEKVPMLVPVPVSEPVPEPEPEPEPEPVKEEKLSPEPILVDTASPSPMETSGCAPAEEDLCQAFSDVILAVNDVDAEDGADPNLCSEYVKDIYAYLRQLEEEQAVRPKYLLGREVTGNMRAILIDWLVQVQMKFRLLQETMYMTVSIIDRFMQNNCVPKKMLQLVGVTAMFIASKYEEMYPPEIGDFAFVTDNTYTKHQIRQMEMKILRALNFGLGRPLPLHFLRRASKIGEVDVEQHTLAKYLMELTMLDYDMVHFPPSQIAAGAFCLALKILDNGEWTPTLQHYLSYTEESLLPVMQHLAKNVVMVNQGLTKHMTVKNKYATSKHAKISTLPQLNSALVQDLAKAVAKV

[20] = molecular target: Phosphomannomutase 2 (Homo sapiens, UniProt O15305); experiment: Counter screen SAR assay for PMM2 inhibitors via a fluorescence intensity assay. [Related pubchem assays (depositor defined):AID1545, AID1574]
Sequence of Phosphomannomutase 2 (O15305 whole entry): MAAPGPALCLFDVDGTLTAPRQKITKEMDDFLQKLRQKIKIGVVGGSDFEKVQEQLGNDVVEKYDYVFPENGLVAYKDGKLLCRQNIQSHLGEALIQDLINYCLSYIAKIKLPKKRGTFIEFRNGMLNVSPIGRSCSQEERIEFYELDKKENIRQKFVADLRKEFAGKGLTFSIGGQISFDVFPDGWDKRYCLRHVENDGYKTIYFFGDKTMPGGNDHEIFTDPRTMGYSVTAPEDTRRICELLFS

[21] = molecular target: Protein phosphatase methylesterase 1 (Homo sapiens, UniProt Q9Y570); experiment: endogenous PME-1 and serine hydrolase inhibition – cell lysate, mouse brain cytosol, FP-rhodamine, gel ABPP, selectivity assay for PME-1 inhibitor project, dose response, panel member PME-1 Assay Panel member description: Inhibition of endogenously expressed PME-1 (AID 2366)
Sequence of Protein phosphatase methylesterase 1 (Q9Y570 whole entry): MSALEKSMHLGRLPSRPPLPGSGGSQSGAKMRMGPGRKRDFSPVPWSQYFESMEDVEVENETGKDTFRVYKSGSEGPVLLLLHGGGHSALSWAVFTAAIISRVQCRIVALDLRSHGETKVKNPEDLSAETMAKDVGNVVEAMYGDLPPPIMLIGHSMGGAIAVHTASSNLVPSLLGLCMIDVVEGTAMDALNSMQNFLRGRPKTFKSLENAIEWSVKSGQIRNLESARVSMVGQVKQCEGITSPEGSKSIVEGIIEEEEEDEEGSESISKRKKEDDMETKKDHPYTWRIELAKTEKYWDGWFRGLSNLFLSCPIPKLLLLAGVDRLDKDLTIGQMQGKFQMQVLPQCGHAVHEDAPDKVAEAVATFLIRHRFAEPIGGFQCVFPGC

[22] = molecular target: Voltage-dependent T-type calcium channel subunit alpha-1H (Homo sapiens, UniProt O95180); experiment: human CACNA1H calcium influx blockade – cell-based, synthetic library set 1, calcium flux (AID 493022); format: functional
[23] = molecular target: T1, Tyrosine-protein phosphatase non-receptor type 7; experiment: redox-active compounds inhibiting HePTP phosphatase – biochemical, fluorescence, mechanism study (AID 2068); format: functional
[24] = molecular target: T6, Dual specificity protein phosphatase 6 (Rattus norvegicus, UniProt Q64346); format: functional;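 also: confirmatory in vitro dose-response testing of MKP-3 inhibition; recombinant His-tagged MKP-3 made in E. coli BL21 with OMFP substrate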
T6 sequence (Q64346 whole entry): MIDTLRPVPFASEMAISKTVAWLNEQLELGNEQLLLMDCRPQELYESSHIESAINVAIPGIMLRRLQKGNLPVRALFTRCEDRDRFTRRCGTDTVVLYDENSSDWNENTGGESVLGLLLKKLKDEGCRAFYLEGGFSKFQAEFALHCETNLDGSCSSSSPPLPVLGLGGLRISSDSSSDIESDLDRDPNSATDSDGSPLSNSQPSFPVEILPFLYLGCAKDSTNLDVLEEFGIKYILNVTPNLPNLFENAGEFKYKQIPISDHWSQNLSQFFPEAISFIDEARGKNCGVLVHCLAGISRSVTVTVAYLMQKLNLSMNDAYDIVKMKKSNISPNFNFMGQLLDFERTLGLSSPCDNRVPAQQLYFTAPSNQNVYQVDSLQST

[25] = molecular target: Metabotropic glutamate receptor 4 (Homo sapiens, UniProt Q14833); experiment: Modulation of the Metabotropic Glutamate Receptor mGluR4: Potency at human mGluR4. Modulation of intracellular Ca2+ using Fluo-4, AM, in CHO expressing recombinant receptor [Related pubchem assays (depositor defined):AID2437, AID2807]; format: functional, cell-based
[26] = molecular target: Metabotropic glutamate receptor 4 (Rattus norvegicus, UniProt P31423); experiment: Modulation of the Metabotropic Glutamate Receptor mGluR4: Rat PAM Potency. [Related pubchem assays (depositor defined):AID2437, AID2807]; format: functional
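For AC50 in this document: cells exposed to compound for roughly 70 hours or longer before luminescence read.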

Sequence of Alkaline phosphatase, placental type (P05187 whole entry): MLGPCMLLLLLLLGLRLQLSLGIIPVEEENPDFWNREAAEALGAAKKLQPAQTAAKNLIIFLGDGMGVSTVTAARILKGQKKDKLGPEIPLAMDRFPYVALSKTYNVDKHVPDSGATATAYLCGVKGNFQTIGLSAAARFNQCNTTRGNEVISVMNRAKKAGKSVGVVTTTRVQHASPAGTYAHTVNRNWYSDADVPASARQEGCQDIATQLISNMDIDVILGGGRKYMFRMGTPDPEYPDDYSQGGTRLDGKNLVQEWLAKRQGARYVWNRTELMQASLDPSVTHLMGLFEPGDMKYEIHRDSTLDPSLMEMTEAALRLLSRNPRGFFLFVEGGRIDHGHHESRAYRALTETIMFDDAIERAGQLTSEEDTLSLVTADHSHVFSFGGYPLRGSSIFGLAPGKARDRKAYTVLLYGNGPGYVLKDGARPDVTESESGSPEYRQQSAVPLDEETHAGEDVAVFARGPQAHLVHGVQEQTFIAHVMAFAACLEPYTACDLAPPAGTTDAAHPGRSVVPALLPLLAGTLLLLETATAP

Compound: Cc1ccc(NC(=S)NNC(=O)c2ccccc2OC(F)F)cc1
- IC50 [1]: > 100 µM (inactive)
- IC50 [2]: > 100 µM (inactive)
- IC50 [3]: > 100 µM (inactive)

Compound: Cc1ccc(Cl)cc1N1CCN(C(=O)c2cccc3c(=O)c(C)c(-c4ccccc4)oc23)CC1
- EC50 [4]: 5.59 µM (active)
- EC50 [5]: 16 µM (active)
- EC50 [6]: 8.26 µM (active)
- EC50 [7]: 9.86 µM (active)
- EC50 [8]: > 150 µM (not active)
- EC50 [9]: 6.68 µM (active)
- EC50 [10]: > 53 µM (inactive)

Compound: O=C1NC(=O)N(Cc2ccc(F)cc2)C(=O)/C1=C/c1cccs1
- EC50 [11]: 12.6 µM (active)

Compound: CCc1cc(-c2[nH]nc(C)c2Oc2ccc(C(C)C)cc2)c(O)cc1O
- CC50 [12]: 15.9 µM (active)
- EC50 [4]: 2.28 µM (active)
- EC50 [8]: 4.99 µM (active)
- AC50 [13]: 3.13 µM (active)
- Absolute IC50 (XBP1) [14]: < 10 µM

Compound: O=C(Nc1ccc(Cl)cc1)Nc1cccnc1
- EC50 [15]: 6.85 µM (active)

Compound: CC(=O)Nc1ccc(NC(=O)C2CC(=O)N(C(C)C)C2)cc1 (centres undefined)
- IC50 [16]: > 100 µM (inactive)
- EC50 [17]: > 100 µM (inactive)

Compound: Cc1cccc(NC(=O)CCCOc2cc(=O)n(C)c3ccccc23)n1
- EC50 [18]: > 49.7 µM (inactive)
- EC50 [19]: > 49.7 µM (inactive)

Compound: CN(C)c1cccc(/N=c2\ssnc2Cl)c1
- IC50 [20]: > 100 µM (inactive)

Compound: N#C/C(=C\c1cccn1S(=O)(=O)c1ccccc1)C(=O)c1ccccc1
- IC50 [21]: > 20 µM (inactive)

Compound: O=C(COc1ccccc1F)Nc1nnc(-c2ccc(F)cc2)o1
- EC50 [22]: 10 µM (active)

Compound: NS(=O)(=O)c1cc(C(=O)Nc2cccc(Cl)c2)ccc1Cl
- IC50 [23]: > 100 µM (inactive)
- IC50 [3]: > 100 µM (inactive)
- IC50 [24]: > 100 µM (inactive)

Compound: O=C(Nc1ccc2c(c1)OCO2)c1ccccn1
- EC50 [25]: 9.66 µM (active)
- EC50 [26]: 7.17 µM (active)
